{"source": "the supplement of paper PMC3974653", "data": [{"system": "MTT (mouse pheochromocytoma)", "test": "IC50 of cell viability (ATP content)", "conditions": "(24 or 48 h)", "method_in_brief": "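Each well of a white 1536-well plate received 5 µl of MTT mouse pheochromocytoma cells at 200,000 cells/ml in DMEM containing 5% FBS and 1% horse serum. After overnight culture at 37°C, 5% CO2, cells were exposed for 24 or 48 hrs to 23 nl of library compound in DMSO, pinned at 8 final concentrations from 0.5 nM to 46 µM. CellTiter-Glo luminescence was read after 15 minutes, and IC50 was obtained from a four-parameter logistic fit of signals normalised to positive-control and DMSO wells.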", "units": {"IC50 of cell viability": "µM"}, "values": [{"smiles": "CC(=O)NC\\1=N\\C(=O)N(\\C=C1)C2COC(COC(=O)C3=CC=CC=C3)O2", "note": "(centres undefined)", "IC50 of cell viability": "> 46"}, {"smiles": "C=C1CC2C3C=C(C)C4=CC(=O)CCC4(C)C3CCC2(C)[C@@]1(OC(C)=O)C(C)=O", "note": "(some centres undefined)", "IC50 of cell viability": "> 46"}, {"smiles": "CC(C)C1NC(=O)[C@@H](NC(=O)C2=C3\\N=C\\4/C(=C(/C)C(=O)\\C(=C4C(=O)N[C@H]5[C@@H](C)OC(=O)C(C(C)C)N(C)C(=O)CN(C)C(=O)[C@@H]6CCCN6C(=O)C(NC5=O)C(C)C)N)OC3=C(C)C=C2)[C@@H](C)OC(=O)C(C(C)C)N(C)C(=O)CN(C)C(=O)[C@@H]7CCCN7C1=O", "note": "(some centres undefined)", "IC50 of cell viability": "> 46"}, {"smiles": "Cc1c(O)cc2c(c1C)O[C@](C)(CCC[C@H](C)CCC[C@H](C)CCCC(C)C)CC2", "IC50 of cell viability": "> 46"}, {"smiles": "CC(C)OC(=O)c1cc2c(OCC(O)CNC(C)(C)C)cccc2[nH]1", "note": "(centres undefined)", "IC50 of cell viability": "> 46"}, {"smiles": "CC1(C)CO[C@@H](CC(=O)O)CN1", "IC50 of cell viability": "> 46"}, {"smiles": "Cc1cccc(Nc2cc(Cl)nc(SCC(=O)O)n2)c1C", "IC50 of cell viability": "> 46"}, {"smiles": "CCC(=O)OC1CCC2C3CCc4cc(O)ccc4C3CCC12C", "note": "(centres undefined)", "IC50 of cell viability": "> 46"}, {"smiles": "CCC(=O)Oc1ccc2c(c1)CCC1C2CC[C@]2(C)C(OC(=O)CC)CCC12", "note": "(some centres undefined)", "IC50 of cell viability": "> 46"}, {"smiles": "CCC(=O)OC1[C@@H](N2CCCCC2)C[C@H]2[C@@H]3CC[C@H]4C[C@H](OC(C)=O)[C@@H](N5CCCCC5)C[C@]4(C)[C@H]3CC[C@]12C", "note": "(some centres undefined)", "IC50 of cell viability": "> 46"}, {"smiles": "CCC(=O)O[C@@](Cc1ccccc1)(c1ccccc1)[C@H](C)CN(C)C", "IC50 of cell viability": "> 46"}, {"smiles": "CCc1ccc(S(=O)(=O)O)cc1", "IC50 of cell viability": "> 46"}, {"smiles": "CCCc1c(OCCCCc2nnn[nH]2)ccc(C(C)=O)c1O", "IC50 of cell viability": "> 46"}, {"smiles": "CCCCCCC(=O)CCCCCC/C=C/C[C@@H](O)[C@H](O)[C@@](N)(CO)C(=O)O", "IC50 of cell viability": "> 46"}, {"smiles": "CCCCCCCCCCCCCCCCCC[N+](C)(C)CCC[Si](OC)(OC)OC", "IC50 of cell viability": "> 46"}, {"smiles": "CCCCNc1ccc(C(=O)OCCN(C)C)cc1", "IC50 of cell viability": "> 46"}, {"smiles": "CCCSc1cc(OC)c(CCN)cc1OC", "IC50 of cell viability": "> 46"}, {"smiles": "CCN(CC)C(=O)c1cc([S+](=O)([O-])Cc2ccccc2)c(N2CCC(c3ccccc3)CC2)cc1N(CC)CCN(C)C", "IC50 of cell viability": "> 46"}, {"smiles": "CC[C@@H](O)C(C[C@@H](C)N(C)C)(c1ccccc1)c1ccccc1", "IC50 of cell viability": "> 46"}, {"smiles": "CC[C@H](O)C(C[C@H](C)N(C)C)(c1ccccc1)c1ccccc1", "IC50 of cell viability": "> 46"}, {"smiles": "CC[C@H](OC(C)=O)C(C[C@H](C)NC)(c1ccccc1)c1ccccc1", "IC50 of cell viability": "> 46"}, {"smiles": "CC[N+](CC)(CC(=O)Nc1c(C)cccc1C)Cc1ccccc1.O=C([O-])c1ccccc1", "IC50 of cell viability": "> 46"}, {"smiles": "CN1C(=O)COc2c(C(=O)NC3CN4CCC3CC4)cc(Cl)cc21", "note": "(centres undefined)", "IC50 of cell viability": "> 46"}, {"smiles": "CN1C2CCC1CC(OC(=O)c1cc(Cl)cc(Cl)c1)C2", "note": "(centres undefined)", "IC50 of cell viability": "> 46"}, {"smiles": "COc1cc(CCN)c(OC)cc1Br", "IC50 of cell viability": "> 46"}, {"smiles": "COc1ccc(C2NC(=S)N3C(c4ccc(OC)c(OC)c4)NC(=S)N23)cc1OC", "note": "(centres undefined)", "IC50 of cell viability": "> 46"}, {"smiles": "COc1cc2c(cc1OC)[C@@H](c1ccccc1)CN(C)CC2.O=C(O)/C=C\\C(=O)O", "IC50 of cell viability": "> 46"}, {"smiles": "COc1ccccc1N1CCN(CCCCNC(=O)c2ccc(-c3ccc(C(C)=O)cc3)cc2)CC1", "IC50 of cell viability": "> 46"}, {"smiles": "C[C@@]12CCC[C@H]1[C@@H]1CC[C@H]3C[C@@H](O)CC[C@]3(C)[C@H]1CC2", "IC50 of cell viability": "> 46"}, {"smiles": "Cc1c(C(=O)NCCO)[n+](=O)c2ccccc2n1[O-]", "IC50 of cell viability": "> 46"}, {"smiles": "Cl.Cn1ccc2cc3c(cc21)CCN3C(=O)Nc1cccnc1", "IC50 of cell viability": "> 46"}, {"smiles": "ClC1=C(Cl)C2(Cl)C(CBr)CC1(Cl)C2(Cl)Cl", "note": "(centres undefined)", "IC50 of cell viability": "> 46"}, {"smiles": "F/C(COc1ccc2c(c1)[nH]c1ccccc12)=C1/CN2CCC1CC2", "IC50 of cell viability": "> 46"}, {"smiles": "Nc1nc(Cl)nc2c1ncn2C1CC(O)C(CO)O1", "note": "(centres undefined)", "IC50 of cell viability": "> 46"}, {"smiles": "NC1CCN(c2cccc(Cl)n2)CC1", "IC50 of cell viability": "> 46"}, {"smiles": "O=C1c2ccccc2-c2n[nH]c3cccc1c23", "IC50 of cell viability": "> 46"}, {"smiles": "O=C1CC2(CCCC2)CC(=O)N1CCNCC1COc2ccccc2O1", "note": "(centres undefined)", "IC50 of cell viability": "> 46"}, {"smiles": "O=C(O)CN(CCOCCOCCN(CC(=O)O)CC(=O)O)CC(=O)O", "IC50 of cell viability": "> 46"}, {"smiles": "O=C(O)[C@H]1C[C@@H](CP(=O)(O)O)CCN1", "IC50 of cell viability": "> 46"}]}]}
